# Measurements as given in ChEMBL document CHEMBL1201862, “PubChem BioAssay data set” (2004).
#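 A five-concentration, 48-hour dose response in 96-well plates underlies each endpoint, interpolated linearly between surrounding concentrations. At the GI50, growth is halved.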 Calls of active or inactive are those of the source. No stated cut-off is given here; in the data, active = GI50 up to about 1.1 µM and inactive = higher.
# Tests used:
# Assay in all cases: NCI-60 cell line screen, 48 h
# 786-0 = test system: 786-0
# A498 = test system: A498
# A549 = test system: A549
# ACHN = test system: ACHN
# BT-549 = test system: BT-549
# CAKI-1 = test system: CAKI-1
# CCRF-CEM = test system: CCRF-CEM
# COLO 205 = test system: COLO 205
# DU-145 = test system: DU-145
# EKVX = test system: EKVX
# HCC 2998 = test system: HCC 2998
# HCT-116 = test system: HCT-116
# HCT-15 = test system: HCT-15
# HL-60 = test system: HL-60
# HOP-62 = test system: HOP-62
# HOP-92 = test system: HOP-92
# HT-29 = test system: HT-29
# Hs-578T = test system: Hs-578T
# IGROV-1 = test system: IGROV-1
# K562 = test system: K562
# KM12 = test system: KM12
# LOX IMVI = test system: LOX IMVI
# M14 = test system: M14
# MCF7 = test system: MCF7
# MDA-MB-231 = test system: MDA-MB-231
# MDA-MB-435 = test system: MDA-MB-435
# MDA-N = test system: MDA-N
# MOLT-4 = test system: MOLT-4
# Malme-3M = test system: Malme-3M
# NCI-H226 = test system: NCI-H226
# NCI-H23 = test system: NCI-H23
# NCI-H460 = test system: NCI-H460
# NCI-H522 = test system: NCI-H522
# NCI/ADR-RES = test system: NCI/ADR-RES
# OVCAR-3 = test system: OVCAR-3
# OVCAR-4 = test system: OVCAR-4
# OVCAR-5 = test system: OVCAR-5
# OVCAR-8 = test system: OVCAR-8
# PC-3 = test system: PC-3
# RPMI-8226 = test system: RPMI-8226
# RXF 393 = test system: RXF 393
# SF-268 = test system: SF-268
# SF-295 = test system: SF-295
# SF-539 = test system: SF-539
# SK-MEL-28 = test system: SK-MEL-28
# SK-MEL-2 = test system: SK-MEL-2
# SK-MEL-5 = test system: SK-MEL-5
# SK-OV-3 = test system: SK-OV-3
# SN12C = test system: SN12C
# SNB-19 = test system: SNB-19
# SNB-75 = test system: SNB-75
# SR = test system: SR
# SW-620 = test system: SW-620
# T47D = test system: T47D
# TK-10 = test system: TK-10
# U-251 = test system: U-251
# UACC-257 = test system: UACC-257
# UACC-62 = test system: UACC-62
# UO-31 = test system: UO-31
smiles,measurement,setting,value
COc1cc2cc3c4c(cc(OC)c(OC)c4c2cc1OC)CCN3C,GI50,786-0,4.29 µM (inactive)
same,GI50,A498,6.84 µM (inactive)
same,GI50,A549,9.53 µM (inactive)
same,GI50,ACHN,3.66 µM (inactive)
same,GI50,BT-549,6.46 µM (inactive)
same,GI50,CAKI-1,4.86 µM (inactive)
same,GI50,CCRF-CEM,1.36 µM (inactive)
same,GI50,COLO 205,7.64 µM (inactive)
same,GI50,DU-145,4.97 µM (inactive)
same,GI50,EKVX,15.3 µM (inactive)
same,GI50,HCC 2998,7.41 µM (inactive)
same,GI50,HCT-116,5.96 µM (inactive)
same,GI50,HCT-15,6.84 µM
same,GI50,HL-60,5.3 µM (inactive)
same,GI50,HOP-62,11.9 µM (inactive)
same,GI50,HOP-92,9.93 µM (inactive)
same,GI50,HT-29,6.89 µM (inactive)
same,GI50,Hs-578T,2.63 µM (inactive)
same,GI50,IGROV-1,4.21 µM (inactive)
same,GI50,K562,6.19 µM (inactive)
same,GI50,KM12,11 µM (inactive)
same,GI50,LOX IMVI,5.25 µM (inactive)
same,GI50,M14,6.9 µM (inactive)
same,GI50,MCF7,2.63 µM (inactive)
same,GI50,MDA-MB-231,7.73 µM (inactive)
same,GI50,MDA-MB-435,5.56 µM (inactive)
same,GI50,MDA-N,13.1 µM (inactive)
same,GI50,MOLT-4,2.41 µM (inactive)
same,GI50,Malme-3M,8.53 µM (inactive)
same,GI50,NCI-H226,7.35 µM (inactive)
same,GI50,NCI-H23,12.8 µM (inactive)
same,GI50,NCI-H460,2.65 µM (inactive)
same,GI50,NCI-H522,2.58 µM (inactive)
same,GI50,NCI/ADR-RES,4.2 µM (inactive)
same,GI50,OVCAR-3,8.05 µM (inactive)
same,GI50,OVCAR-4,2.51 µM (inactive)
same,GI50,OVCAR-5,21 µM (inactive)
same,GI50,OVCAR-8,12.7 µM (inactive)
same,GI50,PC-3,3.52 µM (inactive)
same,GI50,RPMI-8226,2.72 µM (inactive)
same,GI50,RXF 393,1.83 µM (inactive)
same,GI50,SF-268,8.53 µM (inactive)
same,GI50,SF-295,3.07 µM (inactive)
same,GI50,SF-539,9.25 µM (inactive)
same,GI50,SK-MEL-28,18.1 µM (inactive)
same,GI50,SK-MEL-2,10.3 µM (inactive)
same,GI50,SK-MEL-5,6.03 µM (inactive)
same,GI50,SK-OV-3,9.18 µM (inactive)
same,GI50,SN12C,7.38 µM (inactive)
same,GI50,SNB-19,12.5 µM (inactive)
same,GI50,SNB-75,8.13 µM (inactive)
same,GI50,SR,1.25 µM (inactive)
same,GI50,SW-620,7.36 µM (inactive)
same,GI50,T47D,1.67 µM (inactive)
same,GI50,TK-10,4.42 µM (inactive)
same,GI50,U-251,3.58 µM (inactive)
same,GI50,UACC-257,9.12 µM (inactive)
same,GI50,UACC-62,4.83 µM (inactive)
same,GI50,UO-31,2.11 µM (inactive)
CC(C)C[C@H](NC(=O)[C@H](Cc1ccccc1)NC(=O)CCc1ccccc1)B(O)O,GI50,786-0,< 0.01 µM (active)
same,GI50,A498,< 0.01 µM (active)
same,GI50,A549,< 0.01 µM (active)
same,GI50,ACHN,< 0.01 µM (active)
same,GI50,BT-549,< 0.01 µM (active)
same,GI50,CAKI-1,< 0.01 µM (active)
same,GI50,CCRF-CEM,< 0.01 µM (active)
same,GI50,COLO 205,< 0.01 µM (active)
same,GI50,DU-145,< 0.01 µM (active)
same,GI50,EKVX,< 0.01 µM (active)
same,GI50,HCC 2998,< 0.01 µM (active)
same,GI50,HCT-116,< 0.01 µM (active)
same,GI50,HCT-15,< 0.01 µM
same,GI50,HL-60,< 0.01 µM (active)
same,GI50,HOP-62,< 0.01 µM (active)
same,GI50,HOP-92,< 0.01 µM (active)
same,GI50,HT-29,< 0.01 µM (active)
same,GI50,Hs-578T,< 0.01 µM (active)
same,GI50,IGROV-1,< 0.01 µM (active)
same,GI50,K562,< 0.01 µM (active)
same,GI50,KM12,< 0.01 µM (active)
same,GI50,LOX IMVI,< 0.01 µM (active)
same,GI50,M14,< 0.01 µM (active)
same,GI50,MCF7,< 0.01 µM (active)
same,GI50,MDA-MB-231,< 0.01 µM (active)
same,GI50,MDA-MB-435,< 0.01 µM (active)
same,GI50,MDA-N,< 0.01 µM (active)
same,GI50,MOLT-4,< 0.01 µM (active)
same,GI50,Malme-3M,< 0.01 µM (active)
same,GI50,NCI-H226,< 0.01 µM (active)
same,GI50,NCI-H23,< 0.01 µM (active)
same,GI50,NCI-H460,< 0.01 µM (active)
same,GI50,NCI-H522,< 0.01 µM (active)
same,GI50,NCI/ADR-RES,0.011 µM (active)
same,GI50,OVCAR-3,< 0.01 µM (active)
same,GI50,OVCAR-4,< 0.01 µM (active)
same,GI50,OVCAR-5,< 0.01 µM (active)
same,GI50,OVCAR-8,< 0.01 µM (active)
same,GI50,PC-3,< 0.01 µM (active)
same,GI50,RPMI-8226,< 0.01 µM (active)
same,GI50,RXF 393,< 0.01 µM (active)
same,GI50,SF-268,< 0.01 µM (active)
same,GI50,SF-295,< 0.01 µM (active)
same,GI50,SF-539,< 0.01 µM (active)
same,GI50,SK-MEL-28,< 0.01 µM (active)
same,GI50,SK-MEL-2,< 0.01 µM (active)
same,GI50,SK-MEL-5,< 0.01 µM (active)
same,GI50,SK-OV-3,< 0.01 µM (active)
same,GI50,SN12C,< 0.01 µM (active)
same,GI50,SNB-19,< 0.01 µM (active)
same,GI50,SNB-75,< 0.01 µM (active)
same,GI50,SR,< 0.01 µM (active)
same,GI50,SW-620,< 0.01 µM (active)
same,GI50,T47D,< 0.01 µM (active)
same,GI50,TK-10,< 0.01 µM (active)
same,GI50,U-251,< 0.01 µM (active)
same,GI50,UACC-257,< 0.01 µM (active)
same,GI50,UACC-62,< 0.01 µM (active)
same,GI50,UO-31,< 0.01 µM (active)
